Values of other authors in patent US20050261194A1, “Use of thymulin-like peptides for making pain-relieving medicines” (priority 2001, published 2005).
Where no end group is shown, it is not given here. [ ]: non-standard residue; d: D form. pGlu = O=C1CC[C@@H](C(=O)O)N1

Test system: rat
Details: cited from earlier work

PyroGlu-Ala-Lys-Ser-Gln-Gly-Gly-Ser-Asn ([pGlu]AKSQGGSN) [thymuline]
effect on hyperalgesia at higher doses (micrograms in the rat, 50-100 μg/kg): reduces hyperalgesia
effect on hyperalgesia at low dose (nanograms in the rat, 0.2 to 20 μg/kg): induces hyperalgesia
